Among the data in article PMC12040169 (PLOS Biology, 2025) are viability values, retold here.

This series can be described thus: in vitro. The following applies: human, hela cells, % viability.
As a reminder, the viability is a read-out of living cells in per cent, often relative to untreated cells. In the case of `CC(=O)OC(COc1ccc(F)cc1)Cn1cnc2ccccc21` (stereo not shown) [CBK266162], the viability at 28.5 h, 10 µM was found to be 104%.
Under `CCOC(=O)N1CCN(CC(=O)Nc2cc3c(cc2C(C)=O)OCO3)CC1` [CBK266163] stands 99.8%; under `Cc1cc(C)cc(NC(=O)C(Cc2ccccc2)C(=O)Nc2cc(C)cc(C)c2)c1` [CBK266165], 106%.
Take `CC1(C)Cc2nc3sc(C(=O)O)c(NC(=O)c4ccccc4)c3cc2CO1` [CBK266166]: the viability at 28.5 h, 10 µM was determined as 98.4%.
Under `CC(=O)Nc1ccc(C(=O)CSc2nc(-c3ccccc3)c(-c3ccccc3)o2)cc1` [CBK266168] stands 87.6%.
`COc1ccc(-c2cc(C(F)(F)F)nc(SCC(=O)Nc3ccc4c(c3)OCO4)n2)cc1OC` [CBK266169]: the viability at 28.5 h, 10 µM was found to be 101%.
Consider `CCn1c(SCC(=O)Nc2ccc(Br)cc2F)nnc1-c1ccc(OC)cc1` [CBK266172], for which the viability at 28.5 h, 10 µM worked out at 100%.
For `Fc1ccc(CCNC(=S)NC2CCCC2)cc1` [CBK266175], the viability at 28.5 h, 10 µM amounted to 99.9%.
The figure for `O=C(CSc1nnc(-c2ccncc2)n1C1CCCCC1)Nc1ncc2c(n1)CC(c1ccccc1)CC2=O` (stereo not shown) [CBK266177] is 94.3%.
The figure for `O=C(COc1ccc(Br)cc1)Nc1ccc(CN2CCCCC2)cc1` [CBK266181] is 99.5%; for `Cc1ccccc1OCCn1c(CCCO)nc2ccccc21` [CBK266182] it is 115%; for `Cc1ccc(C(=O)NC(C)c2nnc(SCC(=O)c3ccc(Br)cc3)n2C)cc1` (stereo not shown) [CBK266183] it is 93.8%.
The figure for `Cc1ccc2nc(-c3ccc(NC(=O)CSc4nnc(C)s4)cc3)sc2c1` [CBK266185] is 92.5%; for `Cc1ccc(O)c(NC(=O)c2nc3nc(C)cc(C(F)F)n3n2)c1` [CBK266186] it is 99.6%.
Consider `COc1ccc(C(=O)NC(CC(=O)O)c2ccc(OC)cc2)cc1` (stereo not shown) [CBK266188], for which the viability at 28.5 h, 10 µM worked out at 101%.
For `CC(Sc1nc(N)cc(=O)[nH]1)C(=O)Nc1ccc(S(N)(=O)=O)cc1` (stereo not shown) [CBK266191], the viability at 28.5 h, 10 µM was 110%.
The figure for `N#Cc1c(NC(=O)CSc2nc(-c3ccco3)cc(C(F)(F)F)n2)sc2c1CCCC2` [CBK266193] is 87%; for `CN(C)CCCNc1ccc(-c2nnc(O)c3ccccc23)cc1[N+](=O)[O-]` [CBK266200] it is 100%; for `COc1ccccc1NC(=S)NCCc1ccc(S(N)(=O)=O)cc1` [CBK266201] it is 95.1%.
Under `NC(=O)c1ccc(NC(=O)CSc2nnc(-c3ccncc3)n2-c2ccc(Br)cc2)cc1` [CBK266202] stands 103%; under `O=C(COc1ccc([N+](=O)[O-])cc1)Nc1ccc(CN2CCCCC2)cc1` [CBK266204], 118%; under `CCc1ccc(CC)c(S(=O)(=O)NC(CC(=O)O)c2ccccc2)c1` (stereo not shown) [CBK266208], 102%.
As to `O=C(Nc1ccc(I)cc1C(=O)NCCN1CCOCC1)c1ccco1` [CBK266211], the viability at 28.5 h, 10 µM was found to be 100%.
The figure for `O=C(Nc1ccc(I)cc1C(=O)N1CCCCC1CCO)c1cccc2ccccc12` (stereo not shown) [CBK266212] is 113%.
The figure for `CCN(CC)CC(=O)Nc1ccccc1OC` [CBK266213C] is 113%; for `O=C(O)CSc1nnc(SCc2cccc3ccccc23)s1` [CBK266215] it is 81.4%.
Under `NC(=O)C1(N2CCCCC2)CCN(C(=O)CSc2nnc(-c3ccccc3)n2C2CCCCC2)CC1` [CBK266219] stands 101%; under `CC(=O)Nc1ccc(NC(=O)c2ccc(-c3ccc([N+](=O)[O-])cc3)o2)cc1` [CBK266220], 99.8%; under `Nc1nc(CSc2nnc(-c3ccncc3)o2)nc(Nc2ccc(F)cc2)n1` [CBK266221], 116%.
On to `O=C(NC(=S)Nc1ccc(OCc2ccccc2)cc1)c1cccnc1` [CBK266224], for which the viability at 28.5 h, 10 µM stood at 97.8%.
The figure for `CC(=O)c1cc2c(cc1NC(=O)CSc1ccccn1)OCO2` [CBK266225] is 94.2%.
